Our source for the IC50 and CC50 values is ChEMBL document CHEMBL5325495, “Synthesis and anti-cancer potential of potent peripheral MAOA inhibitors designed to limit blood:brain penetration” (Bioorg Med Chem, 2023).

Bounds are passed on as bounds.

Assay [1] deals with T1, Amine oxidase [flavin-containing] A (Homo sapiens, UniProt P21397).
T1 sequence (P21397 whole entry): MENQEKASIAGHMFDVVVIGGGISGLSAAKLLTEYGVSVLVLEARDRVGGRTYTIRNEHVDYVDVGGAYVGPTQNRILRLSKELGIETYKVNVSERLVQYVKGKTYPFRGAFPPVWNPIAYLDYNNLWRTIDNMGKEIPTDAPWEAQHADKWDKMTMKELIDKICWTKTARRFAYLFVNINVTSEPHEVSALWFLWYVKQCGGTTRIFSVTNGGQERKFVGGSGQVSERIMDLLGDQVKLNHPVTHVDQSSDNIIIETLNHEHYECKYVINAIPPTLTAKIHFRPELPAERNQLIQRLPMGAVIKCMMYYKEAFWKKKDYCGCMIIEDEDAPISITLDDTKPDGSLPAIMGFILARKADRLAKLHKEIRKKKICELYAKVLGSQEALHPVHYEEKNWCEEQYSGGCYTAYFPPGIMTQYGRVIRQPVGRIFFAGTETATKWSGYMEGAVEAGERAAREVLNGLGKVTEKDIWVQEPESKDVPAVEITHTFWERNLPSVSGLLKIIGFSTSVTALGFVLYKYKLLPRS
Description: Inhibition of recombinant human MAO-A expressed in baculovirus infected BTI insect cells.

For assay [2], the target named is T2, Amine oxidase [flavin-containing] B (Homo sapiens, UniProt P27338).
T2 sequence (P27338 whole entry): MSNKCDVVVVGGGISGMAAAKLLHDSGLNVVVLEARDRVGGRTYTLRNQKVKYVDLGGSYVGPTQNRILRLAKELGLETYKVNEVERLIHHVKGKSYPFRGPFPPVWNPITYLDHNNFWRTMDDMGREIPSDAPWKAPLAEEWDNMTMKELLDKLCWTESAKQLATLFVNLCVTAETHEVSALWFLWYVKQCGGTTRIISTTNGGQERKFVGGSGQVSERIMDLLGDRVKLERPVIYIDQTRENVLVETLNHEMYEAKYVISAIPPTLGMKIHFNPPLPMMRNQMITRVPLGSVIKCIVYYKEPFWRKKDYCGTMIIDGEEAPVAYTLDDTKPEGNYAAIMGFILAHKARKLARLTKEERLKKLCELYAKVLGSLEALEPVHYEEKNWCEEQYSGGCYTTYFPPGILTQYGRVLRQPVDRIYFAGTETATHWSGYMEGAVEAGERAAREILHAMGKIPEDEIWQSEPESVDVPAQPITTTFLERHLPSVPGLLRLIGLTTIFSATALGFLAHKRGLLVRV
Put plainly: Inhibition of recombinant human MAO-B expressed in baculovirus infected BTI insect cells. The assay is classed as cell-based.

Another assay has as its system LNCaP. Description: Cytotoxicity against human LNCaP cells incubated for 3 days by Cell-Titer Glo assay. Particulars: 72 h, time 3 day. It is filed as functional.
The test system of the next assay is LNCaP C4-2B. Description: Cytotoxicity against human LNCaP C4-2B cells incubated for 3 days by Cell-Titer Glo assay. It is filed as functional. Particulars: 72 h, time 3 day.

A word on the IC50: it is the midpoint of a concentration-inhibition curve. As usually defined, the CC50 is the concentration giving 50% cytotoxicity. A higher CC50 goes with lower toxicity to the cells.

Consider `C#CCN(C)CCCOc1cc(O)c(Cl)cc1Cl`, for which the IC50 in assay [1] was determined as 0.0244 µM; in assay [2] it was 0.91 µM. The CC50 was 35.5 µM in the assay on LNCaP and 30.2 µM with LNCaP C4-2B.

For the compound `C#CCN(C)CCCOc1cc(NS(C)(=O)=O)c(Cl)cc1Cl`, the values for the IC50 in assay [1] and in assay [2] were 0.064 µM and 69.6 µM, respectively. Also, the CC50 was 103 µM with LNCaP and 119 µM in the assay with LNCaP C4-2B.

In the case of `C#CCN(C)CCCOc1cc(NC(=O)c2cc[nH]n2)c(Cl)cc1Cl`, the IC50 was 25.7 µM in assay [1] and more than 500 µM in assay [2]. Also, the results for the CC50 in the assay with LNCaP and with LNCaP C4-2B were 15.8 µM and 32.5 µM, respectively.

For the compound `C#CCN(C)CCCOc1cc(N)c(Cl)cc1Cl`, the IC50 in assay [1] is 0.0148 µM; in assay [2] it was more than 500 µM. For the same compound, the CC50 was 31.1 µM in the assay with LNCaP and 31.6 µM in the assay on LNCaP C4-2B.

For the compound `C#CCN(C)CCCOc1cc(C)c(Cl)cc1Cl`, the IC50 was determined as 6.78 µM in assay [1] and 122 µM in assay [2]. For the same compound, the figures for the CC50 in the assay on LNCaP and in the assay with LNCaP C4-2B were 37 µM and 66 µM, respectively.

In the case of `C#CCN(C)CCCOc1cc(C#N)c(Cl)cc1Cl`, the values for the IC50 in assay [1] and in assay [2] were 0.103 µM and 38 µM, respectively. For the same compound, the results for the CC50 with LNCaP and in the assay with LNCaP C4-2B were 65.4 µM and 72.4 µM, respectively.

As for `C#CCN(C)CCCOc1ccc(Cl)cc1Cl` [CLORGILINE], the CC50 was 51.5 µM in the assay on LNCaP and 53.5 µM in the assay with LNCaP C4-2B.

On to `C#CCN(CCO)CCCOc1ccc(Cl)cc1Cl`, for which the results for the IC50 in assay [1] and in assay [2] were 0.794 µM and more than 500 µM, respectively. Further, the CC50 was 35.7 µM in the assay on LNCaP and 46.5 µM with LNCaP C4-2B.

In the case of `C#CCN(C)CCCOc1cc(NC(C)=O)c(Cl)cc1Cl`, the IC50 in assay [1] came to 8.66 µM; in assay [2], 352 µM. Besides, the CC50 in the assay on LNCaP came out at 97.3 µM; in the assay on LNCaP C4-2B, 97 µM.

For the compound `C#CCN(CCO)CCCOc1cc(N)c(Cl)cc1Cl`, the values for the IC50 in assay [1] and in assay [2] were 0.764 µM and more than 500 µM, respectively. The figures for the CC50 with LNCaP and in the assay on LNCaP C4-2B were 55.8 µM and 43.9 µM, respectively.

For the compound `C#CCN(C)C[C@@H](O)COc1cc(N)c(Cl)cc1Cl`, the values for the IC50 in assay [1] and in assay [2] were 0.0715 µM and more than 500 µM, respectively. The CC50 was 78.9 µM with LNCaP and 73.7 µM with LNCaP C4-2B.

`NNCCc1ccccc1` [PHENELZINE]: the CC50 with LNCaP was found to be 121 µM; in the assay on LNCaP C4-2B, 157 µM.

For `C#CCN(C)CCCOc1cc(NC=O)c(Cl)cc1Cl`, the IC50 in assay [1] stood at 6.6 µM; in assay [2] it was 25.3 µM. The CC50 is 85.9 µM with LNCaP and 84 µM with LNCaP C4-2B.

On to `C#CCN(C)C[C@H](O)COc1cc(N)c(Cl)cc1Cl`, for which the IC50 was 0.0715 µM in assay [1] and more than 500 µM in assay [2]. In addition, the CC50 with LNCaP was determined as 78.9 µM; in the assay with LNCaP C4-2B it was 73.7 µM.
